Source: EP0414569A2, “Three-liquid-phase epoxidation of perfluoroolefins” (E.I. DU PONT DE NEMOURS AND COMPANY, priority 1989, dated 1991)

How the values were obtained:
[1] = Determination of the HFP-HFPO partition coefficient (alpha) in an organic liquid: HFP/HFPO gas mixture passed through the liquid, dissolved gases measured by gas chromatography; type: physicochemical; conditions: HFP-HFPO partition coefficient of the organic liquid, atmospheric pressure
Method: A simple method of determining this preference (using HFP over HFPO as an example of other olefins and their epoxides covered by this invention) is to determine the partition coefficient for the system HFPO-HFP-organic liquid. Determination of the partition coefficient (alpha) is carried out by passing a mixture of HFP and HFPO gas through the organic liquid at atmospheric pressure while agitating vigorously and maintaining a constant temperature. The gas is passed through the liquid long enough to ensure that the liquid is completely saturated with the gases and to let the gas phase composition equilibrate to the feed composition. The organic liquid phase is then sampled and gas chromatography is used to determine the amount of the gaseous components which had been dissolved in the liquid phase. The partition coefficient, alpha, is then calculated by the following equation: [formula]
Using this method, partition coefficients were determined for a number of organic liquids at -15°C and 0°C, with the results shown below: […]

[2] = Miscibility of toluene with HFP and HFPO; type: physicochemical; conditions: in toluene; miscibility sharply affected by temperature
Excerpt: Certain organic liquids show more affinity for perfluoroolefins than for their epoxides and they are desired for use in this invention. […] With mixtures of HFP and HFPO as would exist in a continuous back-mixed reactor, immiscibility exists at higher temperatures. It is believed that organic liquids which are substantially halogenated will not form two phases with HFP or HFPO. […] Therefore, a hydrogen-containing organic liquid is used.

| Molecule | Alpha at 0°C [1] | Alpha at -15°C [1] | concentration at which toluene becomes immiscible [2] |
| --- | --- | --- | --- |
| FC(F)(F)C(F)(F)C(F)(F)C(F)(F)C1(F)OC(F)(F)C(F)(F)C1(F)F (centres unmarked) [FC-75, Perfluoro(butyl tetrahydrofurane)] | 1.0 | 1.0 |  |
| FC(F)=C(F)C(F)(F)F [HFP, hexafluoropropylene] |  |  | 20-40 wt % |
| FC(F)(F)C1(F)OC1(F)F (centres unmarked) [HFPO, hexafluoropropylene epoxide] |  |  | 3-6 wt % |
| COc1ccccc1 [anisole] | 2.5 | 2.4 |  |
| Clc1ccccc1 [chlorobenzene] | 2.1 | 1.9 |  |
| Cc1cc(C)cc(C)c1 [mesitylene] | 2.2 | 2.3 |  |
| CCCCCCCCCC [n-decane] | 1.3 | 1.6 |  |
| dichlorobenzene | 2.1 | 2.0 |  |
